Data on three molecules can be found in article PMC5343027, “Crystal Structure of the Chloroplastic Oxoene Reductase ceQORH from Arabidopsis thaliana” (Frontiers in Plant Science, 2017).

Experiment [1] concerns the target T1, ceQORH (chloroplast envelope quinone oxidoreductase homolog) (Arabidopsis thaliana, UniProt Q9SV68).
T1 sequence (Q9SV68 1-329): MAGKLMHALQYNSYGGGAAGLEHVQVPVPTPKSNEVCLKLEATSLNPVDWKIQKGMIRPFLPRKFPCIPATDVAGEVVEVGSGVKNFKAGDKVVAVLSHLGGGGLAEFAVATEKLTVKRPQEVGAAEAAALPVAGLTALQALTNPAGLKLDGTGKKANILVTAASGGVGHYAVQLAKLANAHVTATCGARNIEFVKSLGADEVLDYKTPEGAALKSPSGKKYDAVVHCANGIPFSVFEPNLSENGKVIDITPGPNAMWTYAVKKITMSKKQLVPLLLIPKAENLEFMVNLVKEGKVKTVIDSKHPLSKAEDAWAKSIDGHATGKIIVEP
In words: enzyme inhibition kinetics ([…] nm) after […] s preincubation, […] trans-1, […] diphenyl-2-propenone; low-quality crystal structure with NADPH not used. It is filed as biochemical.

Experiment [2] deals with T1, ceQORH (chloroplast envelope quinone oxidoreductase homolog). Description: X-ray crystal structures, […] Å (binary) and […] Å (ternary with NADP+). The class given is binding.
Experiment [3] has the same target. Description: X-ray crystal structure, […] Å, ternary complex with 13-KOTE. It is filed as binding.

Molecules are shown by their SMILES.

`CCCCCC(=O)/C=C/C=C\CCCCCCCC(=O)O` [13-KODE, 13-oxo-9(Z),11(E)-octadecadienoic acid] showed a concentration for half-maximal inhibition (IC50) in experiment [1] of 36 µM.
For the molecule `CC/C=C\CC(=O)/C=C/C=C/CCCCCCCC(=O)O` [13-KOTE, 13-oxo-9(Z), 11(E), 15(Z)-octadecatrienoic acid], the “X-ray crystal structures, 2.78 Å (binary) and 2.81 Å (ternary with NADP+)” value in experiment [2] was “apo-ceQORH (5A3V), ceQORH-13-KOTE (5A3J), and ceQORH-NADP^+-13-KOTE (5A4D)”.
Regarding `NC(=O)c1ccc[n+]([C@@H]2O[C@H](COP(=O)(O)OP(=O)(O)OC[C@H]3O[C@@H](n4cnc5c(N)ncnc54)[C@H](OP(=O)(O)O)[C@@H]3O)[C@@H](O)[C@H]2O)c1` [NADP^+], in experiment [3], the “X-ray crystal structure, 2.81 Å, ternary complex with 13-KOTE” value is “NADP^+ is bound at the interface of the two domains and the nicotinamide ring is in the vicinity of the catalytic site”.

In general, IC50 refers to the midpoint of a concentration-inhibition curve.
